From ChEMBL document CHEMBL1150015, “Rational design of purine nucleoside phosphorylase inhibitors: Design of 2-(2-Haloethyl) and 2-ethenyl substituted quinazolinone alkylating agents” (Bioorg Med Chem Lett, 1992)

Target: T1, Purine nucleoside phosphorylase (Homo sapiens) (UniProt P00491)
T1 sequence (whole entry): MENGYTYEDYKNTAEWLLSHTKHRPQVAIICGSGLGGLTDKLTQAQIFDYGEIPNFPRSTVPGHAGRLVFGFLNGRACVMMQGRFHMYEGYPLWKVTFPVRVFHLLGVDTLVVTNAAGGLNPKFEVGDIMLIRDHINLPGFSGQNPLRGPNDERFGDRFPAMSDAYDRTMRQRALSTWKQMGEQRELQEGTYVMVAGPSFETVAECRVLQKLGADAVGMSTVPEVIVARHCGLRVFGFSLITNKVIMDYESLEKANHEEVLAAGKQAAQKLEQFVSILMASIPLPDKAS
Assay: Second order rate constant for the inactivation of Purine Nucleoside Phosphorylase by compound in 0.05 M Phosphate Buffer and at a pH 7.4 (u=0.1 KCl) at 30.0 degree Centigrade

Compound | k
C=Cc1nc(O)c2c(n1)C(=O)C=CC2=O | 3.1 M⁻¹ s⁻¹
O=C1C=CC(=O)c2c(O)nc(-c3ccccc3)nc21 | 15.9 M⁻¹ s⁻¹
O=C1C=CC(=O)c2c(O)ncnc21 | 1.62 M⁻¹ s⁻¹
Nc1nc(O)c2c(n1)C(=O)C=CC2=O | 4.73 M⁻¹ s⁻¹
O=C1C=CC(=O)c2c(O)nc(CCBr)nc21 | 7.97 M⁻¹ s⁻¹
O=C1C=CC(=O)c2c(O)nc(CBr)nc21 | 3.7 M⁻¹ s⁻¹
